How the values were obtained:
[1] = Mouse PK study (IV and PO); assay type: in vivo; details: male, C57BL/6, mouse, plasma, male C57BL/6 mice; for AUC(0-inf): IV 2 mg/kg and PO 10 mg/kg study; for bioavailability / Cmax: po, 10 mg/kg; for bioavailability: IV 2 mg/kg and PO 10 mg/kg, read-out: F % (bioavailability); for Cmax: PO group 10 mg/kg
Experimental: This example describes the pharmacokinetic (PK) data obtained for various compounds of the present disclosure, from studies using mice. The following PK parameters were calculated: • Bioavailability (F %) were calculated using the linear/log trapezoidal rule • Peak plasma concentrations (Cmax (ng/mL)) were taken directly from the plasma concentration vs. time profiles for the PO group • Area under the curve e.g., the area under the concentration curve from time 0 to infinity (AUC0-inf(ng*h/mL)). Experimental Procedures
After intravenous (IV) and oral (PO) administration at 2 mg/kg and 10 mg/kg to male C57BL/6 mice, respectively, the blood samples were collected at the designed sampling time points. All blood samples were transferred into pre-chilled commercial polyethylene microcentrifuge tubes containing K2-EDTA as an anticoagulant. Samples were processed for plasma by centrifugation. Plasma samples was transferred into polypropylene tubes pre-chilled on dry ice and then quickly frozen over dry ice and kept at −70±10° C. until LC-MS/MS analysis. Mice plasma samples were analyzed using qualified bioanalytical methods based on protein precipitation followed by LC-MS/MS analysis. Individual plasma concentration data of each compound was subjected to noncompartmental pharmacokinetic analysis using Phoenix WinNonlin™. Nominal doses were used for pharmacokinetic parameters calculation.

[2] = test system: LPA 18:2 level in mouse plasma; assay: In vitro LPA assay, reduction of LPA 18:2 level in mouse plasma (LC-MS/MS); assay type: biochemical; details: 2 hr at 37° C., LPA 18:2 reduction
Experimental: (§1) Autotaxin (ATX) plays an important role in lysophosphatidic acid (LPA) signaling. An in vitro LPA assay was conducted to determine IC50 values of the test compounds on reduction of LPA 18:2 level in rat or mouse plasma. This example describes the assay data (IC50 value ranges) of exemplary compounds from LPA assays using mouse and rat plasma. Compound GPLG-1690 was assayed as a reference compound.
(§2) The 10 mM DMSO stock solutions of test compounds and 4-fold serial dilutions of the test compounds were prepared at various concentrations. The diluted solutions of the compounds were diluted with 1×PBS (pH 7.5) buffer. 38 μL of rat or mouse plasma samples were mixed with 2 μL of the diluted solutions of the compounds or 2% DMSO solutions in 96-well plate (final 0.1% DMSO). After incubating for 2 hr at 37° C., 120 μL MeOH containing IS (250 ng/mL of LPA 17:0) was added to each well. Mixture was vortexed for 1 min, and then centrifuged for 30 min (4000 rpm, 4° C.). 100 μL supernatant was transferred to a 96-well plate containing 100 μL pure water and the plate was shaken for 10 min. 5 μL supernatant was injected into LC-MS/MS system. No calibration curve will be prepared for LPA 18:2 and all quantifications were performed based on peak area ratios (LPA 18:2/LPA 17:0). For each concentration of compound LPA data were expressed as percentage of reduction (% reduction) using the formula. 100−[((LPA ratio-LPA ratio in control sample after 0 hr incubation)/(LPA ratio in control sample after 2 hr incubation—LPA ratio in control sample after 0 hr incubation))*100]. Data

[3] = test system: LPA 18:2 level in rat plasma; assay: In vitro LPA assay, reduction of LPA 18:2 level in rat plasma (LC-MS/MS); assay type: biochemical; details: 2 hr at 37° C., LPA 18:2 reduction
Experimental: as §1, §2

hATX/ENPP2 = hATX/ENPP2 (Homo sapiens, UniProt Q13822); assay: hATX/ENPP2 biochemical assay using 16:0-LPC as substrate (Amplex Red/choline oxidase/HRP fluorescence); details: hENPP2 2.5 nM, LPC (16:0) substrate
Method in brief: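 Enzyme preincubated with compounds 15 min at room temperature in 50 mM Tris-HCl pH 8.0, 140 mM NaCl, 5 mM CaCl2, 0.01% Triton X-100. Reaction started with 80 μM LPC (16:0) stock plus Amplex Red/choline oxidase/HRP mix; fluorescence (ex 530/em 590 nm) read kinetically. IC50 from slope between 60 and 70 min.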

| AUC(0-inf) [1] | bioavailability [1] | Cmax [1] | IC50 [2] | IC50 [3] | IC50 (hATX/ENPP2) | SMILES |
| --- | --- | --- | --- | --- | --- | --- |
| 31000 ng·h/mL | 39.5% | 5170 ng/mL | ≤ 200 nM | ≤ 200 nM | ≤ 20 nM | CCc1nc2ccc(-c3cnc(N4CCN(C(=O)N5CC[C@@H](O)C5)CC4)nc3)cn2c1N(C)c1nc(-c2ccc(F)cc2)c(C#N)s1 [Compound 43, (R)-2-((2-ethyl-6-(2-(4-(3-hydroxypyrrolidine-1-carbonyl)piperazin-1-yl)pyrimidin-5-yl)imidazo[1,2-a]pyridin-3-yl)(methyl)amino)-4-(4-fluorophenyl)thiazole-5-carbonitrile] |
| 25000 ng·h/mL | 33.4% | 4730 ng/mL | 200 to 800 nM | 200 to 800 nM | ≤ 20 nM | CCc1nc2ccc(-c3cnc(N4CCN(C(=O)N5CC[C@H](O)C5)CC4)nc3)cn2c1N(C)c1nc(-c2ccc(F)cc2)c(C#N)s1 [Compound 44, (S)-2-((2-ethyl-6-(2-(4-(3-hydroxypyrrolidine-1-carbonyl)piperazin-1-yl)pyrimidin-5-yl)imidazo[1,2-a]pyridin-3-yl)(methyl)amino)-4-(4-fluorophenvl)thiazole-5-carbonitrile] |
| 40500 ng·h/mL | 44.7% | 6530 ng/mL | > 800 nM | ≤ 200 nM | ≤ 20 nM | CCc1nc2ccc(-c3ccc(N4CCC(C(=O)N5CCCC5)CC4)nc3)cn2c1N(C)c1nc(-c2ccc(F)cc2)c(C#N)s1 [Compound 113, 2-((2-ethyl-6-(6-(4-(pyrrolidine-1-carbonyl)piperidin-1-yl)pyridin-3-yl)imidazo[1,2-a]pyridin-3-yl)(methyl)amino)-4-(4-fluorophenyl)thiazole-5-carbonitrile] |
| 50500 ng·h/mL | 40.8% | 8470 ng/mL | 200 to 800 nM | 200 to 800 nM | ≤ 20 nM | CCc1nc2ccc(-c3ccc(N4CCC(C(=O)N5CC(O)C5)CC4)nc3)cn2c1N(C)c1nc(-c2ccc(F)cc2)c(C#N)s1 [Compound 120, 2-((2-ethyl-6-(6-(4-(3-hydroxyazetidine-1-carbonyl)piperidin-1-yl)pyridin-3-yl)imidazo[1,2-a]pyridin-3-yl)(methyl)amino)-4-(4-fluorophenyl) thiazole-5-carbonitrile] |
| 38300 ng·h/mL | 59.2% | 5580 ng/mL | 200 to 800 nM | ≤ 200 nM | ≤ 20 nM | CCc1nc2ccc(-c3ccc(N4CCC(C(=O)N5CCOCC5)CC4)nc3)cn2c1N(C)c1nc(-c2ccc(F)cc2)c(C#N)s1 [Compound 126, 2-((2-ethyl-6-(6-(4-(morpholine-4-carbonyl)piperidin-1-yl)pyridin-3-yl)imidazo[1,2-a]pyridin-3-yl)(methyl)amino)-4-(4-fluorophenyl)thiazole-5-carbonitrile] |
| 22800 ng·h/mL | 25% | 4260 ng/mL | ≤ 200 nM | 200 to 800 nM | ≤ 20 nM | CCc1nc2ccc(-c3ccc(N4CCN(C(=O)N5CC[C@@H](O)C5)CC4)nc3)cn2c1N(C)c1nc(-c2ccc(F)cc2)c(C#N)s1 [Compound 92, (R)-2-((2-ethyl-6-(6-(4-(3-hydroxypyrrolidine-1-carbonyl)piperazin-1-yl)pyridin-3-yl)imidazo[1,2-a]pyridin-3-yl)(methyl)amino)-4-(4-fluorophenyl)thiazole-5-carbonitrile] |
| 21700 ng·h/mL | 42% | 4310 ng/mL | 200 to 800 nM | 200 to 800 nM | 20 to 200 nM | CCc1nc2ccc(-c3cnc(N4CC(NC5(CO)CC5)C4)nc3)cn2c1N(C)c1nc(-c2ccc(F)cc2)c(C#N)s1 [Compound 30, 2-((2-ethyl-6-(2-(3-((1-(hydroxymethyl)cyclopropyl)amino)azetidin-1-yl)pyrimidin-5-yl)imidazo[1,2-a]pyridin-3-yl)(methyl)amino)-4-(4-fluorophenyl)thiazole-5-carbonitrile] |
